Each structure is given as a SMILES string.

The target in this assay is T1, TGF-β receptor type-1 (TGFβR1) (Homo sapiens, UniProt P36897).
T1 sequence (P36897 200-503 limits assumed): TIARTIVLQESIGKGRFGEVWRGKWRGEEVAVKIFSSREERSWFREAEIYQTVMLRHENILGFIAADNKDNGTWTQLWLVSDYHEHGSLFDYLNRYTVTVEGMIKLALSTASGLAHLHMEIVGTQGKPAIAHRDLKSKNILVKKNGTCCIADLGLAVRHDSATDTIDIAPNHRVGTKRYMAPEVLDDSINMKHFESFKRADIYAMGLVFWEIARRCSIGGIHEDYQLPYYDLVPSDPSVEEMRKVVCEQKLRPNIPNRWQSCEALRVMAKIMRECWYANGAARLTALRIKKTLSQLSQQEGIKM
In words: SPR. It counts as binding.

Usually Kd stands for the equilibrium constant for the complex coming apart. A high value points to lower affinity. The compound `CC(=O)O[C@@H]1C[C@H](O)[C@@]23COC(O)C1(C)[C@@H]2C[C@@H](O)[C@@]1(C)[C@@H]2C(=O)C[C@@H](c4ccoc4)[C@]2(C)[C@@H](OC(C)=O)C(=O)[C@@H]13` (stereo partly shown) [ITSN, Isotoosendanin] came in with a Kd of 24 µM.

These data come from publication PMC10372922 (Acta Pharmaceutica Sinica. B, 2023).
